In US20210095322A1, “HIGH-PURITY STEVIOL GLYCOSIDES” (PureCircle USA Inc., priority 2018, published 2021):
Like-named read-outs stand apart in the source and are kept apart here.

Assays:
[1] = aqueous solution; Ref: Celaya et al (2016); cited from earlier work
[2] = Solubility characteristics and solution stability in water; assay type: physicochemical; conditions: for Solubility: summary of solution stability in water
Description: Solubility characteristics were measured as follows. Prepare the following solutions in water and stir at 700 rpm for each. Add heat if necessary at 2 minutes and 30 seconds of stirring. Using a stopwatch, determine how long it takes all powder to dissolve completely and record the temperature at which it dissolves. The following table summarizes the solubility characteristics of Rebaudiosides D, M, and AM.

[3] = Isosweet determination (2-AFC) vs sucrose in acidified water, sweetness potency; assay type: in vivo, human; conditions: pH = 3.2
Description: As an example, Reb AM was evaluated.

[4] = Sweetness perception threshold (FEMA method, 2-AFC vs 1.5% sugar) in neutral water; assay type: in vivo, human; conditions: for % Frequency / PC (paired comparison count, panelists choosing the sample as sweeter): 2-AFC, n = 30
Description: A series of experiments were performed to evaluate the effect of Reb AM on taste and flavor profile. The sweetness and taste/flavor modification can influence each other in food and beverage applications. To determine the influence of the taste and flavor modification in different applications, the FEMA (Flavor and Extract Manufacturing Association) prescribes a sensory method that determines the sweetness perception threshold determination presented in Experiment 1, which is discussed below.
Experiment 1 provides the estimate of Reb AM concentration in water that barely contributes to sweetness perception. […] The summary of sweetness perception threshold for selected steviol glycosides is below in Table 11.
Therefore we selected 50 ppm of Reb AM as the recognition threshold concentration.

[5] = Flavor modification of Raspberry Watermelon Coconut Water, sensory panel; assay type: in vivo, human; parameters: Sweet Intensity mean score / Bitter Intensity mean score / Astringency mean score / Coconut Flavor mean score / Watermelon Flavor mean score / Raspberry Flavor mean score / Artificial/Chemical Note mean score / Sweet Aftertaste mean score / Bitter Aftertaste mean score / Overall Liking mean score: scale not given here
Text: Thirty panel members evaluated two samples of raspberry watermelon flavored coconut water for overall acceptance and attribute intensities (sweetness, Raspberry flavor, watermelon flavor, coconut water flavor, saltiness, bitterness, and sweet aftertaste, bitter aftertaste) in two sessions. In session one, the two samples included: 1) store-bought Raspberry Watermelon Coconut Water control sample and 2) store-bought Raspberry Watermelon Coconut Water test sample containing Reb AM. The objective of the test was to determine if the addition of Reb AM affects the flavor profile of a non-alcoholic beverage.
The test objective is to determine if the flavor profile and overall acceptance of a Control sample of flavored coconut water differs from a Test sample of the same beverage containing Reb AM.

[6] = Flavor modification of chocolate flavored dairy protein shake, sensory panel; assay type: in vivo, human; parameters: Sweet Intensity mean score / Bitterness mean score / Metallic Note mean score / Cocoa Flavor mean score / Dairy Note mean score / Whey Protein Note mean score / Vanilla Note mean score / Sweet Aftertaste mean score / Bitter Aftertaste mean score / Overall Liking mean score: scale not given here
Text: Thirty trained panelists evaluated two samples of chocolate flavored dairy protein shake for overall acceptance and attribute intensities (cocoa flavor, dairy note, whey protein, vanilla, metallic, sweetness, bitterness and aftertaste). The two samples included: 1) no sugar added “Control” sample containing 300 ppm PureCircle Reb A and 2) no sugar added “Test” sample containing 300 ppm PureCircle Reb A and 50 ppm Reb AM. The objective of the test was to determine if the addition of Reb AM affects the flavor profile of a milk product.
The test objective is to determine if the flavor profile and overall acceptance of a control sample of dairy beverage application differs from a Test sample of the same beverage containing Reb AM.

[7] = Taste panel of no-calorie Lemon-lime carbonated soft drink; assay type: in vivo, human; conditions: 500 ppm in Lemon-lime CSD
Text: A group of trained and experienced taste panel members evaluated no-calorie Lemon-lime carbonated soft drink (CSD) sweetened with 500 ppm of Reb AM, Reb D, or Reb M samples.

[8] = FEMA GRAS publication; cited from earlier work
[9] = 1.5% Sucrose vs 30 ppm Reb AM in neutral water
[10] = 1.5% Sucrose vs 50 ppm Reb AM in neutral water
[11] = 1.5% Sucrose vs 70 ppm of Reb AM in neutral water
[12] = 1.5% Sucrose vs 100 ppm Reb AM in neutral water
[13] = 50 ppm Reb AM in coconut water, 95% confidence
[14] = Coconut water (raspberry/watermelon flavor) with 50 ppm of Reb AM, 30 panelists
[15] = 50 ppm Reb AM added to shake with 300 ppm Reb A, 95% confidence
[16] = NSA Chocolate Vanilla Protein Dairy Shake w Reb A & 50 ppm Reb AM, 30 panelists

## C=C1C[C@@]23CC[C@H]4[C@@](C)(CCC[C@@]4(C)C(=O)O[C@@H]4O[C@H](CO)[C@@H](O)[C@H](O)[C@H]4O)[C@@H]2CC[C@]1(O[C@@H]1O[C@H](CO)[C@@H](O)[C@H](O)[C@H]1O[C@@H]1O[C@H](CO)[C@@H](O)[C@H](O)[C@H]1O)C3 [Stevioside, stevioside]
[1]
  Solubility: <0.7%

## C=C1C[C@@]23CC[C@H]4[C@@](C)(CCC[C@@]4(C)C(=O)O[C@@H]4O[C@H](CO)[C@@H](O)[C@H](O[C@@H]5O[C@H](CO)[C@@H](O)[C@H](O)[C@H]5O)[C@H]4O[C@@H]4O[C@H](CO)[C@@H](O)[C@H](O)[C@H]4O)[C@@H]2CC[C@]1(O[C@@H]1O[C@H](CO)[C@@H](O)[C@H](O)[C@H]1O[C@@H]1O[C@H](CO)[C@@H](O)[C@H](O)[C@H]1O)C3 [Reb AM, Rebaudioside AM]
[2]; Test Conc. 1%
  Comment on solubility: Easily Soluble
  Dissolution in water (Heated): No heat needed
  Dissolution water (Ambient), stirring time: Stirred for 3 min
  Solution after 24 hrs: Clear
  Solution after 48 hrs: Clear
[2]; Test Conc. 5%
  Comment on solubility: Easily Soluble
  Dissolution in water (Heated), temperature: 45 C.
  Solution after 24 hrs: Clear
  Solution after 48 hrs: Clear
[2]; Test Conc. 10%
  Comment on solubility: Moderately
  Dissolution in water (Heated), temperature: 54 C.
  Solution after 24 hrs: Clear
  Solution after 48 hrs: Slight
[2]
  Solubility: 10%
[2]; water
  Solubility compared with other steviol glycosides: significantly higher solubility than other minor and major steviol glycosides
[3]; 2.5% SE
  Sweetness Equivalent (ppm) in Water: 150 ppm
  Sweetness Potency in Water: 167 x sugar equivalent
[3]; 5.0% SE
  Sweetness Equivalent (ppm) in Water: 365 ppm
  Sweetness Potency in Water: 137 x sugar equivalent
[3]; 7.5% SE
  Sweetness Equivalent (ppm) in Water: 869 ppm
  Sweetness Potency in Water: 86 x sugar equivalent
[3]; 10.0% SE
  Sweetness Equivalent (ppm) in Water: 1750 ppm
  Sweetness Potency in Water: 57 x sugar equivalent
[4]; [9]
  % Frequency: 3.3%
  PC (paired comparison count, panelists choosing the sample as sweeter): 1
[4]; [10]
  % Frequency: 23.3%
  PC (paired comparison count, panelists choosing the sample as sweeter): 7
[4]; [11]
  % Frequency: 70%
  PC (paired comparison count, panelists choosing the sample as sweeter): 21
[4]; [12]
  % Frequency: 90%
  PC (paired comparison count, panelists choosing the sample as sweeter): 27
[4]; 50 ppm in water
  Sweetness perception compared with 1.5% sugar solution: significantly lower
[4]; neutral water, vs 1.5% sugar solution
  Sweetness Perception Threshold Concentration: 50 ppm
[5]; 50 ppm Reb AM in coconut water, 90% confidence
  sweet aftertaste intensity vs control: significantly lower
[5]; [13]
  coconut water flavor vs control: significantly higher
  mango peach flavor vs control: significantly higher
  overall liking vs control: significantly higher
  watermelon flavor vs control: significantly higher
[5]; [14]
  Artificial/Chemical Note mean score: 2.55
  Astringency mean score: 1.10
  Bitter Aftertaste mean score: 0.29
  Bitter Intensity mean score: 0.24
  Coconut Flavor mean score: 5.11
  Overall Liking mean score: 5.04
  Raspberry Flavor mean score: 0.95
  Sweet Aftertaste mean score: 1.33
  Sweet Intensity mean score: 4.44
  Watermelon Flavor mean score: 4.41
[6]; 50 ppm Reb AM added to shake with 300 ppm Reb A
  impact on sweetness intensity: no significant impact
[6]; [15]
  bitter aftertaste vs control: lower
  bitterness vs control: significantly lower
  cocoa flavor vs control: significantly higher
  dairy notes vs control: significantly higher
  metallic note vs control: significantly lower
  overall liking vs control: significantly higher
  vanilla flavor vs control: significantly higher
  whey protein vs control: significantly lower
[6]; [16]
  Bitter Aftertaste mean score: 0.77
  Bitterness mean score: 1.46
  Cocoa Flavor mean score: 4.55
  Dairy Note mean score: 4.59
  Metallic Note mean score: 1.48
  Overall Liking mean score: 5.59
  Sweet Aftertaste mean score: 1.65
  Sweet Intensity mean score: 5.98
  Vanilla Note mean score: 2.52
  Whey Protein Note mean score: 4.32
[7]
  bitterness compared to CSD with Reb D or Reb M: significantly less
  sweetness compared to CSD with Reb D or Reb M: less sweet
  sweetness lingering compared to CSD with Reb D or Reb M: significantly less

## C=C1C[C@@]23CC[C@H]4[C@@](C)(CCC[C@@]4(C)C(=O)O[C@@H]4O[C@H](CO)[C@@H](O)[C@H](O[C@@H]5O[C@H](CO)[C@@H](O)[C@H](O)[C@H]5O)[C@H]4O[C@@H]4O[C@H](CO)[C@@H](O)[C@H](O)[C@H]4O)[C@@H]2CC[C@]1(O[C@@H]1O[C@H](CO)[C@@H](O)[C@H](O[C@@H]2O[C@H](CO)[C@@H](O)[C@H](O)[C@H]2O)[C@H]1O[C@@H]1O[C@H](CO)[C@@H](O)[C@H](O)[C@H]1O)C3 [Reb M, rebaudioside M]
[2]; Test Conc. 0.1%
  Comment on solubility: Easily Soluble
  Dissolution in water (Heated), time: No heat needed
  Dissolution water (Ambient), time of agitation: 12 minutes of
  Solution after 24 hrs: Clear
  Solution after 48 hrs: Clear
[2]; Test Conc. 0.3%
  Comment on solubility: Moderately
  Dissolution in water (Heated), temperature: Heated to 99 deg C. deg. C.
  Solution after 24 hrs: Clear
  Solution after 48 hrs: Slight
[2]; Test Conc. 0.5%
  Comment on solubility: Requires
  Dissolution in water (Heated), temperature: 87 deg. C. with
  Dissolution in water (Heated), time: agitation. 16 min
  Solution after 24 hrs: Moderate
[2]
  Solubility: 0.3%
[3]; 2.5% SE
  Sweetness Equivalent (ppm) in Water: 84 ppm
  Sweetness Potency in Water: 298 x sugar equivalent
[3]; 5.0% SE
  Sweetness Equivalent (ppm) in Water: 209 ppm
  Sweetness Potency in Water: 239 x sugar equivalent
[3]; 7.5% SE
  Sweetness Equivalent (ppm) in Water: 418 ppm
  Sweetness Potency in Water: 179 x sugar equivalent
[3]; 10.0% SE
  Sweetness Equivalent (ppm) in Water: 832 ppm
  Sweetness Potency in Water: 90 x sugar equivalent
[8]
  Sweetness Perception Threshold Concentration: 24 ppm

## C=C1C[C@@]23CC[C@H]4[C@@](C)(CCC[C@@]4(C)C(=O)O[C@@H]4O[C@H](CO)[C@@H](O)[C@H](O)[C@H]4O[C@@H]4O[C@H](CO)[C@@H](O)[C@H](O)[C@H]4O)[C@@H]2CC[C@]1(O[C@@H]1O[C@H](CO)[C@@H](O)[C@H](O[C@@H]2O[C@H](CO)[C@@H](O)[C@H](O)[C@H]2O)[C@H]1O[C@@H]1O[C@H](CO)[C@@H](O)[C@H](O)[C@H]1O)C3 [Reb D, rebaudioside D]
[2]; Test Conc. 0.05%
  Comment on solubility: Easily Soluble
  Dissolution in water (Heated), temperature: temp: 39 deg. C.
  Solution after 24 hrs: Clear
  Solution after 48 hrs: Clear
[2]; Test Conc. 0.1%
  Comment on solubility: Easily Soluble
  Dissolution in water (Heated), temperature: temp: 72 deg. C.
  Solution after 24 hrs: Clear
  Solution after 48 hrs: Clear
[2]; Test Conc. 0.3%
  Comment on solubility: Requires
  Dissolution in water (Heated), temperature: 78.5 deg. C.
[2]
  Solubility: 0.1%
[3]; 2.5% SE
  Sweetness Equivalent (ppm) in Water: 62 ppm
  Sweetness Potency in Water: 403 x sugar equivalent
[3]; 5.0% SE
  Sweetness Equivalent (ppm) in Water: 212 ppm
  Sweetness Potency in Water: 236 x sugar equivalent
[3]; 7.5% SE
  Sweetness Equivalent (ppm) in Water: 500 ppm
  Sweetness Potency in Water: 150 x sugar equivalent
[3]; 10.0% SE
  Sweetness Equivalent (ppm) in Water: 926 ppm
  Sweetness Potency in Water: 108 x sugar equivalent
[8]
  Sweetness Perception Threshold Concentration: 32.5 ppm
